One test has as its system HCC70 cells. In words: Cell viability (CellTiter-GLO), 4 days, TNBC cells. The test is classed as cell-based, human. The procedure: (§1) The “No.” label for each compound corresponds to the “Structure No.” in Table 2 (e.g., “No. 36”=“Structure No. 36” in Table 2). The cell viability curves were measured by CellTiter-GLO.
(§2) For cell viability, cells were seeded in 96-well plates at 1500-2500 cells per well (optimum density for growth) in a total volume of 100 μl media. Serially diluted compounds in 100 μl of media were added to the cells 12 hours later. After 4 days of incubation, Cell-Titer GLO reagents (Promega) were added and luminescence was measured on GLOMAX microplate luminometer (Promega), according to the manufacturer's instructions. All experimental points were set up as sextuplicate as biological replication and the entire experiments were repeated three times. The data are presented as percentage of viable cells with vehicle treated cells set as 100. The estimated in vitro IC50 values were calculated using GraphPad Prism 6 software.
A general note: Cellular ATP, detected with luciferase, serves as a proxy for viable cell number.

The test system of a further test is MDA-MB468 cells. Briefly: Cell viability (CellTiter-GLO), 4 days, TNBC cells. Format: cell-based, human. How it is done: as §1, §2

For the molecule `O=C(Cc1ccccc1[N+](=O)[O-])Nc1ccc(-c2ccc(C(O)(C(F)(F)F)C(F)(F)F)cc2F)cc1` [XY018, N-(2′-fluoro-4′-(1,1,1,3,3,3-hexafluoro-2-hydroxypropan-2-yl)-[1,1′-biphenyl]-4-yl)-2-(2-nitrophenyl)acetamide], the “inhibition of growth and survival” value is “strongly inhibited the growth and survival” with HCC70 cells; “strongly inhibited the growth and survival” with MDA-MB468 cells.

The values above are taken from patent US20210161837A1, “METHODS FOR TREATING CANCER WITH RORGAMMA INHIBITORS” (The Regents of the University of California, priority 2016, published 2021).
